Laboratory results as given in patent publication US8470889B2 (TRT Pharma Inc., priority 2008, dated 2013).
Numbering of substitutions follows the chain as printed.

How the values were obtained:
T877A mutated AR = target: T1, T877A mutated AR (Homo sapiens, UniProt P10275, T878A); assay: Luciferase assay for AR transactivation, T877A AR, PC-3 cells; format: cell-based; details: 0.1 nM DHT; for suppression of DHT-induced transactivation of T877A AR: test compound 0.1-1 μM, PC-3 cells; for Antiandrogenic activity evaluated by luciferase assay in PC-3 cells T877A: test compound 1 μM
T1 sequence (P10275 1-920 T878A): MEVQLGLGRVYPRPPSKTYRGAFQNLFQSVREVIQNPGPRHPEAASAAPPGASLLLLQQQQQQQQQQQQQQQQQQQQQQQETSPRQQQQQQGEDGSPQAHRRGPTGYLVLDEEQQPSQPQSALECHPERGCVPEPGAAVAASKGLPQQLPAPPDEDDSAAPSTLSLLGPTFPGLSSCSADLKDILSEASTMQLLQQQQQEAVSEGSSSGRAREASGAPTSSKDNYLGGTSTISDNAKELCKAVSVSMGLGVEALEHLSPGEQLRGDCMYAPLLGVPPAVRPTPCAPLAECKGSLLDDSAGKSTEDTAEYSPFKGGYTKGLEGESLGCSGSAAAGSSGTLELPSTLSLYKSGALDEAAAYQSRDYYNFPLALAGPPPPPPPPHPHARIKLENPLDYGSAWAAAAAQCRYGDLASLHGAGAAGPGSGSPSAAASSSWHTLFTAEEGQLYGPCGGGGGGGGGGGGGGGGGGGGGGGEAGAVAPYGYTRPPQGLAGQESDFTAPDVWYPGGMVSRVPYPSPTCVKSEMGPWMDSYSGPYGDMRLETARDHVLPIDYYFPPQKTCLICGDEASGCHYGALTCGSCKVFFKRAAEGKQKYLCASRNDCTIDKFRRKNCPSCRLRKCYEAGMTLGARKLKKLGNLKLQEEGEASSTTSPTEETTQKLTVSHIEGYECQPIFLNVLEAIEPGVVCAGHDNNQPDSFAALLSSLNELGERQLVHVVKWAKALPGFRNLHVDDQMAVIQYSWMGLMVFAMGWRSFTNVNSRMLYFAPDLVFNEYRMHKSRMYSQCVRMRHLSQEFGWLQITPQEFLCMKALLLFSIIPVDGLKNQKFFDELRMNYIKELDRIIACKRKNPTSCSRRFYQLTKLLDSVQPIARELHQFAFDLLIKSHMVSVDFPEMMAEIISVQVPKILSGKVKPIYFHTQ
Experimental: (§1) PC-3 cells were transiently transfected with pCMV-MMTV-Luc, Renilla null luciferase and AR expressing plasmids. The cells were treated with 0.1 nM DHT with and without test compound for 24 hr. Relative luciferase activity was determined by dual luciferase assay kit (Promega), standardized to Renilla luciferase control and normalized to 0.1 nM DHT without test compound (100%).
(§2) After 16 h, the cells were treated with 0.1 nM of DHT and test compounds at the designated concentration. After further 24 h, the cells were lysed in 100 μL/well passive lysis buffer, and 20 μL of the cell lysates was used for detection of the luciferase activity using Dual Luciferase Assay System (Promega). All experiments were run in triplicate. Relative luciferase activity is determined as the ratio of inducible firefly luciferase luminescence divided by the luminescence of the renilla luciferase control normalized to 0.1 nM DHT without test compounds.
(§3) The potency of antagonistic activity: ++>+.

H874Y mutated AR = target: T2, H874Y mutated AR (Homo sapiens, UniProt P10275, H875Y); assay: Luciferase assay for AR transactivation, H874Y AR, PC-3 cells; format: cell-based; details: 0.1 nM DHT; for suppression of DHT-induced transactivation of H874Y AR: test compound 0.1-1 μM, PC-3 cells; for Antiandrogenic activity evaluated by luciferase assay in PC-3 cells H874Y: test compound 1 μM
T2 sequence (P10275 1-920 H875Y): T1 sequence (P10275 1-920 T878A) with H875Y, A878T
Experimental: as §1, §2, §3

suppression of DHT-induced transactivation of T877A AR (T877A mutated AR) | suppression of DHT-induced transactivation of H874Y AR (H874Y mutated AR) | SMILES | Antiandrogenic activity evaluated by luciferase assay in PC-3 cells T877A (T877A mutated AR) | Antiandrogenic activity evaluated by luciferase assay in PC-3 cells H874Y (H874Y mutated AR)
dose-dependent activity | dose-dependent activity | CC1=C(/C=C/C(=O)/C=C/c2cccc(C(F)(F)F)c2)C(C)(C)CCC1O (racemic) [Compound B25] | – | –
effective | effective | CC1(C)CCC(O)C=C1/C=C/C(=O)/C=C/c1cnc2ccccc2c1 (stereo not shown) [Compound B95] | ++ | ++

SMILES | suppression of DHT-induced transactivation of T877A AR (T877A mutated AR) | suppression of DHT-induced transactivation of H874Y AR (H874Y mutated AR) | Antiandrogenic activity evaluated by luciferase assay in PC-3 cells T877A (T877A mutated AR) | Antiandrogenic activity evaluated by luciferase assay in PC-3 cells H874Y (H874Y mutated AR)
CC1(C)CCC(O)C=C1/C=C/C(=O)/C=C/c1csc2ccccc12 (stereo not shown) [Compound B92] | pure antagonists | pure antagonists | ++ | +
